Assay results published in publication PMC7305075 (Cancer Chemotherapy and Pharmacology, 2020).
Where two headings read alike, the source gives them in different places.

Key:
[1] = design: method as in Karbownik et al. [36], [37]; settings: ref Karbownik et al. [36], [37]; cited from earlier work
[2] = design: method as in Karbownik et al. [36]–[38]; settings: in vivo; ref Karbownik et al. [36]–[38]; cited from earlier work
[3] = Plasma pharmacokinetics of paracetamol, paracetamol glucuronide and paracetamol sulphate in rats (HPLC-UV, non-compartmental); assay type: in vivo, Wistar rats; settings: for ka (absorption rate constant) / Cmax: plasma, mean ± SD (CV %)
Description: The experimental protocol assuming involvement of animals in this study was reviewed and approved by the Local Ethics Committee, Poznań, Poland (no 61/2017). All procedures were performed in accordance with the European Union regulations concerning the handling and use of laboratory animals. Adult male Wistar rats (weight 480–530 g) were used in the study. The animals were maintained under standard breeding conditions with a 12/12 h light–dark cycle (lights on at 06.00, lights off at 18.00) at constant room temperature (23 ± 2 °C), relative humidity of 55 ± 10% and given ad libitum access to food and water. The animals were allowed to acclimatise for a week before the beginning of the experiments. The rats were divided into three groups. […] To make sure that the animals received the entire dose of the drug, 1 mL of 10% DMSO was then administered to rinse the probe. 100 µL of blood was collected from each rat by cutting off a piece of his tail. The blood samples were collected into heparinised test tubes at the following time points: 0, 0.5, 1, 2, 3, 4, 5, 6, 7, 8, 10, 12, 24, 30, 48, 72, 96 h. […] All the blood samples were centrifuged at 2.880 g for 10 min at 4 °C.
Separation was achieved by isocratic elution of the mobile phase, comprising sodium sulphate 0.05 M pH 2.2 (adjusted with 85% orthophosphoric acid) and acetonitrile (93:7, v/v), at a flow rate of 1.0 mL/min through an BDS Hypersil® C18 column (150 mm × 4.6 mm, 5.0 μm particle size) (Thermo Electron Corporation®, Waltham, MA, USA). The total time of analysis for each run was 10 min. The column temperature was maintained at 25 °C, the UV detection wavelength was set at 254 nm and the injection volume was 50 μL. Theophylline was used as the internal standard (IS).
The maximum plasma concentration (Cmax) and the time to reach the Cmax (tmax) were derived directly from the observed plasma concentrations. The total area under the concentration–time curve (AUC) was estimated by the trapezoidal rule with extrapolation from time zero to infinity (AUC0-∞). The elimination half-life (t0.5) was estimated from ln2/kel. The apparent plasma drug clearance (Cl/F) was calculated by dividing the dose (D) by the AUC0-∞. The apparent volume of distribution (Vd/F) was estimated from D/(kel × AUC0-∞).

[4] = cited from earlier work
[5] = design: method as in PMID 26739624; settings: ref [24], cited from earlier work
UGT1A9 = settings: cited from earlier work
UGT2B15 = test system: UGT2B15; design: method as in Liu et al. [26]; settings: in vitro, recombinant UDP-glucuronyl transferases and liver microsomes, paracetamol glucuronidation; ref Liu et al. [26]; cited from earlier work
[6] = cited from earlier work; remark: listed apart in the source
[7] = in vitro study; ref [42]; cited from earlier work
UGT1A1 = settings: in vitro studies; ref [21]; cited from earlier work
[8] = Plasma pharmacokinetics of sorafenib and sorafenib N-oxide in rats (HPLC-UV, non-compartmental); assay type: in vivo, Wistar rats; settings: mean ± SD (CV %)
Description: The experimental protocol assuming involvement of animals in this study was reviewed and approved by the Local Ethics Committee, Poznań, Poland (no 61/2017). All procedures were performed in accordance with the European Union regulations concerning the handling and use of laboratory animals. Adult male Wistar rats (weight 480–530 g) were used in the study. The animals were maintained under standard breeding conditions with a 12/12 h light–dark cycle (lights on at 06.00, lights off at 18.00) at constant room temperature (23 ± 2 °C), relative humidity of 55 ± 10% and given ad libitum access to food and water. The animals were allowed to acclimatise for a week before the beginning of the experiments. The rats were divided into three groups. […] To make sure that the animals received the entire dose of the drug, 1 mL of 10% DMSO was then administered to rinse the probe. 100 µL of blood was collected from each rat by cutting off a piece of his tail. The blood samples were collected into heparinised test tubes at the following time points: 0, 0.5, 1, 2, 3, 4, 5, 6, 7, 8, 10, 12, 24, 30, 48, 72, 96 h. […]
The maximum plasma concentration (Cmax) and the time to reach the Cmax (tmax) were derived directly from the observed plasma concentrations. […] The apparent plasma drug clearance (Cl/F) was calculated by dividing the dose (D) by the AUC0-∞. […]

[9] = IS+PA group (with sorafenib) vs. IIIPA group
[10] = single oral paracetamol 100 mg/kg b.w. + sorafenib 100 mg/kg b.w. (IS+PA group)
[11] = single oral paracetamol 100 mg/kg b.w. alone (IIIPA group)
[12] = analogous dose (100 mg/kg) orally, ref Mekjaruskul et al. [35]
[13] = single dose 100 mg/kg orally, ref Pingili et al. [34]
[14] = in vitro, recombinant UDP-glucuronyl transferases and liver microsomes, paracetamol glucuronidation, ref Liu et al. [26]

For `C#Cc1cccc(Nc2ncnc3cc(OCCOC)c(OCCOC)cc23)c1` [erlotinib], the “increase in AUC0-t of the TKI on co-administration with paracetamol” value [1] is given as 31%, the “increase in Cmax of the TKI on co-administration with paracetamol” value [1] is given as 88% and the “decrease of the AUC0-∞ of paracetamol after administration of the TKI” value (from here on “decrease of the AUC0-∞ of paracetamol”) [2] is given as 35.5%. The “drop of the Cmax of paracetamol after administration of the TKI” value (from here on “drop of the Cmax of paracetamol”) [2] was 18.9%.
With `CC(=O)Nc1ccc(O)cc1` [Paracetamol] the “increase in AUC0-∞” value [3, 9] was 71%, the “increase in Cmax” value [3, 9] was 33% and the “ka (absorption rate constant)” value [3, 10] was 2.09 ± 1.11 h⁻¹. For the same compound, the “ka (absorption rate constant)” value [3, 11] was 2.35 ± 0.99 h⁻¹, the Cmax [4, 12] was 19100 ng/mL and the t0.5 [4, 12] was 21.29 min. The tmax [4, 12] was 1.0 h, the Cmax [4, 13] was 5040 ng/mL and the t0.5 [4, 13] was 266 min. The tmax [4, 13] was 1.16 h, the “fraction conjugated with cysteine” value ([5]; metabolism in the liver) was 3% and the “fraction conjugated with glucuronic acid” value ([5]; metabolism in the liver) was 60%. For the same compound, the “fraction conjugated with sulphuric acid” value ([5]; metabolism in the liver) was 30% and the “fraction N-hydroxylated through cytochrome P-450 (CYP2E1) to NAPQI” value [5] was 5–10%.
For `Cc1nc(Nc2ncc(C(=O)Nc3c(C)cccc3Cl)s2)cc(N2CCN(CCO)CC2)n1` [dasatinib], the “inhibition of UGT1A9” value (UGT1A9; [14]) is given as “inhibited” and the “inhibition of UGT2B15” value (UGT2B15) is given as “inhibited”.
For `CCN(CC)CCNC(=O)c1c(C)[nH]c(/C=C2\C(=O)Nc3ccc(F)cc32)c1C` [sunitinib], the “decrease of the AUC0-∞ of paracetamol” value [2] is given as 68.19% and the “drop of the Cmax of paracetamol” value [2] is given as 63.95%.
For `CNC(=O)c1cc(Oc2ccc(NC(=O)Nc3ccc(Cl)c(C(F)(F)F)c3)cc2)ccn1` [Sorafenib], the Cmax ([6]; ref Wang [27]) is given as 230.86 ng/mL, the tmax ([6]; ref Wang [27]) is given as 8.14 h and the Cmax ([6]; ref Wang [39]) is given as 338 ng/mL. The “inhibition of UGT1A9” value (UGT1A9; in vitro studies, ref [21]) was “particularly inhibits”, the “inhibition of UGT1A9” value (UGT1A9; [14]) was “inhibited” and the “binding to human plasma proteins” value [7] was 99.8%. For the same compound, the “inhibition of UGT1A1” value (UGT1A1) was “particularly inhibits” and the “inhibition of UGT2B15” value (UGT2B15) was “inhibited”.
In the case of `CS(=O)(=O)CCNCc1ccc(-c2ccc3ncnc(Nc4ccc(OCc5cccc(F)c5)c(Cl)c4)c3c2)o1` [lapatinib], the “increase in AUC0-t of the TKI on co-administration with paracetamol” value [1] is given as 240%, the “increase in Cmax of the TKI on co-administration with paracetamol” value [1] is given as 184% and the “decrease of the AUC0-∞ of paracetamol” value [2] is given as 48.8%. The “drop of the Cmax of paracetamol” value [2] was 55.7%.
With `CC(=O)Nc1ccc(O[C@@H]2O[C@H](C(=O)O)[C@@H](O)[C@H](O)[C@H]2O)cc1` [Paracetamol glucuronide, paracetamol glucuronide] the “decrease in AUC0-∞” value [3, 9] was 42%, the “reduction in Cmax” value [3, 9] was 48% and the Cmax [3, 10] was 19830 ng/mL. The Cmax [3, 11] was 38380 ng/mL.
With `CNC(=O)c1cc(Oc2ccc(NC(=O)Nc3ccc(Cl)c(C(F)(F)F)c3)cc2)cc[n+]1[O-]` [Sorafenib N-oxide, sorafenib N-oxide] the tmax [8, 10] was 15.5 h and the tmax ([8]; single oral sorafenib 100 mg/kg b.w. alone (IIS group)) was 16.3 h.
